Laboratory results as given in patent US20240316073A1, “CANNABIDIOLIC ACID ESTERS FOR TREATING PRADER-WILLI SYNDROME” (EPM (IP), Inc., priority 2021, published 2024).
Entries after “also recorded” stand apart in the source; their conditions may differ.

Assays:
[1] = cited from earlier work
Magel2^null mice [2] = test: Magel2-null mouse model of Prader-Willi Syndrome, HFD-induced obesity, CBDA-ME treatment; assay type: in vivo
From the text: A Magel2-null mice model of Prader-Willi Syndrome was used to examine the effects of CBDA-ME treatment.
(§1) The experimental protocol used was approved by the Institutional Animal Care and Use Committee of the Hebrew University, Israel, which is an AAALAC International accredited institute. Male 6-week-old Magel2^null mice and their wild-type littermate controls were maintained under a 12-h light/dark cycle and fed ad libitum. To generate diet-induced obesity, the mice were fed either a high-fat diet (HFD) (60% of calories from fat, 20% from protein, and 20% from carbohydrates; Research Diet, D12492) or a standard laboratory diet (STD, 14% fat, 24% protein, 62% carbohydrates; NIH-31 rodent diet) for 14-16 weeks. Then, HFD-fed obese mice received vehicle (1% Tween80, 4% DMSO, 95% Saline) or CBDA-ME (20 or 40 mg/kg) daily for 28 days by intraperitoneal (ip) injections. Age-matched control mice on STD received vehicle daily.
(§2) Body weight was monitored daily. Total body fat and lean masses were determined by EchoMRI-100H™ (Echo Medical Systems LLC, Houston, TX, USA). At weeks 20-22, the mice were euthanized by a cervical dislocation under deep anesthesia. The brain, kidneys, liver, fat pads, pancreas and muscles were removed, and the liver and kidney were also weighed. The samples were either snap-frozen or fixed in buffered 4% formalin. Trunk blood was collected for determining the biochemical parameters.
(§3) Multi-parameter metabolic assessment—Metabolic profile of the mice was assessed by using the Promethion High-Definition Behavioral Phenotyping System (Sable Instruments, Inc., Las Vegas, NV, USA). Data acquisition and instrument control were performed using MetaScreen software version 2.2.18.0, and the obtained raw data were processed using ExpeData version 1.8.4 using an analysis script detailing all aspects of data transformation. Mice with free access to food and water (which were continuously measured) were subjected to a standard 12 h light/12 h dark cycle, which consisted of a 24 h acclimation period followed by 24 h of sampling. Respiratory gases were measured by using the GA-3 gas analyzer (Sable Systems, Inc., Las Vegas, NV, USA) using a pull-mode, negative-pressure system. Air flow was measured and controlled by FR-8 (Sable Systems, Inc., Las Vegas, NV, USA), with a set flow rate of 2000 mL/min. Water vapor was continuously measured and its dilution effect on O2 and CO2 was mathematically compensated. Effective body mass was calculated by ANCOVA. Fat oxidation (FO) and carbohydrate oxidation (CHO) were calculated as FO=1.69×VO2−1.69×VCO2 and CHO=4.57×VCO2−3.23×VO2 and expressed as g/d/kg^eff.Mass. […]
(§4) Statistical Methods—Results in multiple groups and time-dependent variables were compared by ANOVA followed by Tukey post-hoc test. Significance was set at P<0.05 using the following signs: *P<0.05 relative to STD-Veh; #P<0.05 relative to HFD-Veh; ^P<0.05 relative to HFD-20 mg/kg of CBDA-ME.
(§5) The metabolic profile of CBDA-ME was examined in mice with diet-and genetic-induced obesity (DIO, GIO). Male Magel2^null mice and their wild-type littermate controls fed a high-fat diet (HFD) for 14-16 weeks became obese and then started treatment with daily ip injections of vehicle, or CBDA-ME (20 mg/kg/d or 40 mg/kg/d) for 28 days. Age-and sex-matched mice on STD served as controls.

WT mice = test: Wild-type littermate controls with HFD diet-induced obesity, CBDA-ME treatment; assay type: in vivo
From the text: as §1, §2, §3
Glucose tolerance test (ipGTT) and insulin tolerance test (ipITT)-Mice that fasted overnight were injected with glucose (1.5 g/kg, ip), followed by a tail blood collection at 0, 15, 30, 45, 60, 90, and 120 minutes. Blood glucose levels were determined using the Contour glucometer (Bayer, Pittsburgh, PA). The following day, mice underwent fasting for 6 h before receiving insulin (0.75 U/kg, ip; Eli Lilly), and blood glucose levels were determined at the same intervals as above. […]
as §4, §5

DIO mice = test: Serum biochemistry and hepatic lipid content in HFD-fed obese mice, genotype not distinguished (WT or PWS model); assay type: in vivo
From the text: as §1
Blood biochemistry—Serum levels of cholesterol, triglycerides (TG), high-density lipoprotein (HDL), low-density lipoprotein (LDL), glucose, alanine aminotransferase (ALT), aspartate aminotransferase (AST), and alkaline phosphatase (ALP) were determined using the Cobas C-111 chemistry analyzer (Roche, Switzerland). Fasting blood glucose was measured using the Contour glucometer.
Hepatic lipid content—Liver tissues were extracted and their triglyceride and cholesterol contents were determined using the Cobas C-111 chemistry analyzer (Roche, Switzerland) or the EnzyChrom™ Triglyceride assay kit (BioAssay Systems, Hayward CA, USA).
Histopathology—First, 5 μm paraffin-embedded liver sections from 5 animals per group were stained with hematoxylin-eosin staining. Liver images were captured with a Zeiss AxioCam ICc5 color camera (Carl Zeiss AG, Jena, Germany) mounted on a Zeiss Axio Scope.A1 light microscope (Carl Zeiss AG, Jena, Germany) and taken from 10 random 40× fields of each animal.
as §4

Magel2^null mice [3] = test: PWS preventive model: Magel2-null mice on standard diet treated for 18 weeks; assay type: in vivo; settings: STD diet, 20 mg/kg/day IP
Method: The aim of the second study was to evaluate whether EPM301 treatment has an impact on body weight gain and adiposity in a mouse model of PWS.
Male 6-week-old Magel2^null mice and their wild-type littermate controls were maintained under a 12-h light/dark cycle and fed ad libitum a standard laboratory diet (STD, 14% fat, 24% protein, 62% carbohydrates; NIH-31 rodent diet).
Magel2^null mice were either treated with EPM301 20 mg/kg/day or with vehicle (1% Tween80, 4% DMSO, 95% Saline). WT siblings were treated with vehicle. All treatments were given for 18 weeks by intraperitoneal (IP) injections.

rats [4] = settings: compared with CBDA, 5-HT1A receptor-dependent; cited from earlier work
rats [5] = settings: compared with CBDA, 5-HT1A receptor-dependent; cited from earlier work; remark: listed apart in the source
rat models = settings: oral ingestion, 1 mg/kg, two rat models; cited from earlier work
[6] = HFD-fed obese, 20 or 40 mg/kg/d ip, 28 days
[7] = 20 or 40 mg/kg ip, 28 days, more prominent at the higher dose

C=C(C)[C@@H]1CCC(C)=C[C@H]1c1c(O)cc(CCCCC)c(C(=O)O)c1O [CBDA, cannabidiolic acid]
stability (decarboxylation into CBD enhanced by heat) [1]: relative instability

C=C(C)C1CCC(C)=C[C@H]1c1c(O)cc(CCCCC)c(C(=O)OC)c1O (some centres unmarked) [CBDA-ME, cannabidiolic acid methyl ester]
food intake and hyperphagia (Magel2^null mice [2]; HFD): inhibit; also recorded: significantly reduced
reduced ambulatory activity (Magel2^null mice [2]; HFD): restored
increased adiposity (Magel2^null mice [2]; [6]): reduced by CBDA-ME in both doses
overweight (body weight) (Magel2^null mice [2]; [6]): reduced by CBDA-ME in both doses; also recorded: significantly reduced; also recorded: effectively reduced
insulin sensitivity (ipITT) (Magel2^null mice [2]; HFD, 40 mg/kg): slightly improved
obesity-induced glucose intolerance (ipGTT) (Magel2^null mice [2]; HFD, 20 or 40 mg/kg): found effective in Magel2^null mice in both doses tested
fasting blood glucose levels (Magel2^null mice [2]; HFD, chronic treatment): reduced
carbohydrate oxidation (Magel2^null mice [2]; HFD, indirect calorimetry): downregulating
fat oxidation (Magel2^null mice [2]; HFD, indirect calorimetry): further upregulating
food intake and hyperphagia (WT mice; HFD): not observed
reduced ambulatory activity (WT mice; HFD): restored
increased adiposity (WT mice; [6]): only observed in the higher dose of 40 mg/kg
overweight (body weight) (WT mice; [6]): only observed in the higher dose of 40 mg/kg; also recorded: only the higher dose was found effective
insulin sensitivity (ipITT) (WT mice; HFD, 40 mg/kg): slightly improved
obesity-induced glucose intolerance (ipGTT) (WT mice; HFD, 40 mg/kg): this effect was observed
lean body mass percentage (WT mice; HFD, 40 mg/kg ip, 28 days): significant increase
fasting blood glucose levels (WT mice; HFD, chronic treatment): only in Magel2^null mice
carbohydrate oxidation (WT mice; HFD, indirect calorimetry): upregulated
utilization of fat (fat oxidation) (WT mice; HFD, indirect calorimetry): downregulated
parameters measured overall (WT mice; WT DIO mice, 40 mg/kg): improvements in almost all parameters measured
obesity related hepatocellular injury: serum ALT (DIO mice; 40 mg/kg): reduction
obesity related hepatocellular injury: serum AST (DIO mice; 40 mg/kg): reduction
serum HDL (DIO mice; 20 or 40 mg/kg ip, 28 days): no effect
HFD-induced hypercholesterolemia (serum cholesterol) (DIO mice; [7]): reduced
ratio between HDL-to-LDL (DIO mice; [7]): increased
serum LDL (DIO mice; [7]): reduced
ALP levels (DIO mice; HFD): No major changes
HFD-induced hepatic steatosis (hepatic triglyceride and cholesterol levels, fat vacuoles in the liver) (DIO mice; HFD): attenuated
change in the body weight versus WT controls and vehicle-treated Magel2^null mice (Magel2^null mice [3]): significantly lower
fat mass versus WT control mice (Magel2^null mice [3]): similar
lean mass versus WT control mice (Magel2^null mice [3]): similar
fat mass versus vehicle-treated Magel2^null mice (Magel2^null mice [3]; listed as EPM301, 20 mg/kg/day): lower fat mass; also recorded: prevented
lean mass versus vehicle-treated Magel2^null mice (Magel2^null mice [3]; listed as EPM301, 20 mg/kg/day): significantly higher; also recorded: increased lean mass
weight gain versus vehicle-treated Magel2^null mice (Magel2^null mice [3]; listed as EPM301, 20 mg/kg/day): lower; also recorded: prevented weight gain
suppressing signs of acute and anticipatory nausea (rats [4]): greater potency than CBDA
suppressing signs of stress-induced anxiety (rats [5]): greater potency than CBDA
anti-depressant effect (rat models): potent anti-depressant effect
